Tests used:
opioid receptors = test system: opioid receptors; set-up: method as in earlier work; details: ref Allegaert et al., 2015, De La Gastine et al., 2022, Gillen et al., 2000, Gong et al., 2014; cited from earlier work
[1] = Pharmacokinetics of tramadol and O-desmethyl tramadol in SD rats with or without crizotinib; details: male, Sprague-Dawley, rat, serum, po, 20 mg/kg; for CL/F: CLz/F; for Vd/F: Vz/F; for half-life: t1/2z
Source text: Ultra-performance liquid chromatography-tandem mass spectrometry (UPLC-MS/MS) was utilized to measure the concentration of both tramadol and O-desmethyl tramadol. Separation was achieved using a Waters Acquity UPLC BEH C18 column, with dimensions of 2.1 mm × 50 mm and 1.7-µm particle size (Waters Corp., Milford, MA, USA), and quantitation was completed using a Waters XEVO TQD triple quadruple mass spectrometer. The mobile phase was composed of 0.1% formic acid (A) and ACN (B), and the gradient elution was carried out with a flow rate of 0.4 mL/min, following the procedure: 90–10% A (0–1.4 min), 10–90% A (1.4–1.5 min), and 90% A (1.5–2.0 min). Positive mode was used to detect the analytes with the following transitions: m/z 264.2 →58.0, m/z 250.2 →58.2, and m/z 285.0 →154.0 for tramadol, O-desmethyl tramadol, and diazepam (used as an internal standard, IS), respectively. The collision energy was 20 V for tramadol and O-desmethyl tramadol, and 25 V for diazepam. The standard for tramadol and O-desmethyl tramadol were dissolved in a small amount of DMSO (the concentration was 1 mg/mL) then diluted with acetonitrile (the final concentration was 1 ng/mL–1,000 ng/mL). Diazepam was diluted with methanol gradually to 500 ng/mL).
SD male rats (280 ± 15 g) were purchased from the Shanghai Animal Experimental Center. Before the experiment, the rats were kept in the animal room for two weeks with adequate water and food in order to adapt to the new environment. The room temperature was kept at 20–25 °C and the humidity was kept at 50%–65%. The change period of light and dark conditions was 12 h, which simulates the change of day and night. All animal experiments were approved by the Ethics Committee of Wenzhou Medical University (Approval number: xmsq2022-0621).
Generally speaking, only when at least five or more animals are involved in the experiment can the results be convincing. Thus, twenty SD rats were randomly divided into four groups with five animals per group: group A received a single dose of 20 mg/kg of tramadol; group B received a single dose of 45 mg/kg of crizotinib and 20 mg/kg of tramadol; group C received multiple doses of 0.5% carboxymethylcellulose sodium salt (CMC-Na) for 7 days and a single dose of 20 mg/kg of tramadol; and group D received multiple doses of 45 mg/kg of crizotinib for 7 days and a single dose of 20 mg/kg of tramadol. Prior to the experiment, all rats were fasted for 12 h but allowed free access to water. Once the experiment began, 0.5% CMC-Na and crizotinib were administered to groups C and D for 7 days, respectively, then to groups A and B on the last day of the experiment. After 30 min, all rats were orally administered 20 mg/kg of tramadol. Blood samples were collected from the tail vein at 5 min, 15 min, 30 min, 1 h, 2 h, 3 h, 4 h, 6 h, 8 h, 10 h, 12 h, and 24 h following tramadol administration. […] The samples were centrifuged at 2400 × g for 10 min to obtain serum. Each 50 µL serum was mixed with 150 µL ACN and 20 µL IS (500 ng/mL). After vortexing for 2 min and centrifugation at 16200 × g for 10 min at 4 °C, the supernatant was obtained, then we used UPLC-MS/MS analysis to detect the concentration of tramadol and O-desmethyl tramadol. After the experiment, all the animals were euthanized by 5% isoflurane inhalation anesthesia.
The Michaelis–Menten, IC50, and Lineweaver-Burk plots were generated using GraphPad Prism 6.0 software (GraphPad Software, Boston, MA, USA) with corresponding values for Km, IC50, and Ki (inhibition constant).

[2] = test system: tramadol metabolism (O-desmethyl tramadol production) in rat liver microsomes; test: Liver microsomal incubation assay: inhibition of tramadol metabolism (O-desmethyl tramadol production) in RLM; format: in vitro ADME; details: rat, pH 7.4, inhibitory rate on tramadol metabolism (production of O-desmethyl tramadol)
Method: All the substance meet the requirements for analysis.
To obtain the Michaelis kinetic parameters of tramadol in RLM and HLM, a 200 µL incubation system was established containing 2 µL RLM or HLM (0.2 mg/mL), 186 µL 1xPBS buffer (pH = 7.4), 2 µL tramadol (10–500 µM), and 10 µL NADPH (1 mM). The mixture was pre-incubated for 5 min without NADPH in a water bath shaking at 37 °C. Then, NADPH was added to initiate the reaction, and the mixture was incubated for another 30 min. The reaction was terminated by adding 400 µL of cold ACN and 20 µL of IS (500 ng/mL).
For drug-interaction screening, 100 µM of each drug (1.6 µL) was added to the system, and added PBS to the final volume of 200 uL. Tramadol concentration was set at 60 µM according to the Km.
To determine the half-maximal inhibitory concentration (IC50), the concentration of crizotinib was set at 0.01, 0.1, 1, 10, 25, 50, and 100 µM, while the concentration of tramadol was constant at 60 µM in RLM or 100 µM in HLM (according to Km).
All data were presented as mean ± SD (standard deviation).

[3] = Group A: single oral 20 mg/kg tramadol alone
[4] = Group B: 20 mg/kg tramadol with crizotinib 45 mg/kg single dose
[5] = Group C: 0.5% CMC-Na for 7 days, then single 20 mg/kg tramadol
[6] = Group D: crizotinib 45 mg/kg for 7 days, then single 20 mg/kg tramadol

SMILES | AUC(0-t) [1, 3] [ng·h/mL] | AUC(0-t) [1, 4] [ng·h/mL] | AUC(0-t) [1, 5] [ng·h/mL] | AUC(0-t) [1, 6] [ng·h/mL] | AUC(0-inf) [1, 3] [ng·h/mL] | AUC(0-inf) [1, 4] [ng·h/mL] | AUC(0-inf) [1, 5] [ng·h/mL] | AUC(0-inf) [1, 6] [ng·h/mL] | CL/F [1, 3] [mL/min/kg] | CL/F [1, 4] [mL/min/kg] | CL/F [1, 5] [mL/min/kg] | CL/F [1, 6] [mL/min/kg] | Cmax [1, 3] [ng/mL] | Cmax [1, 4] [ng/mL] | Cmax [1, 5] [ng/mL] | Cmax [1, 6] [ng/mL] | Tmax [1, 3] [h] | Tmax [1, 4] [h] | Tmax [1, 5] [h] | Tmax [1, 6] [h] | also measured
CN(C)C[C@H]1CCCC[C@]1(O)c1cccc(O)c1 [O-desmethyl tramadol] | 934 ± 101 | 928 ± 145 | 1170 | 1230 | 937 ± 101 | 981 ± 125 | 1180 | 1250 | 360 | 344 | 288 | 268 | 229 ± 56.1 | 172 ± 72.1 | 292 ± 55.1 | 182 ± 65.8 | 0.8 ± 0.27 | 0.7 ± 0.27 | 1.2 ± 0.45 | 0.9 ± 0.65 | affinity relative to tramadol (opioid receptors): more than 700 times; Vd/F [1, 3]: 91.3 ± 12 L/kg; Vd/F [1, 4]: 170 ± 112 L/kg; Vd/F [1, 5]: 72.5 ± 25.4 L/kg; Vd/F [1, 6]: 94.7 ± 26.4 L/kg; half-life [1, 3]: 2.93 ± 0.09 h; half-life [1, 4]: 5.68 ± 3.69 h; half-life [1, 5]: 2.86 ± 0.71 h; half-life [1, 6]: 4.06 ± 0.91 h
CNC(=O)c1cc(Oc2ccc(NC(=O)Nc3ccc(Cl)c(C(F)(F)F)c3)cc2)ccn1 [sorafenib] |  |  |  |  |  |  |  |  |  |  |  |  |  |  |  |  |  |  |  |  | inhibition at 30 min, 100 µM [2]: 96.7%
CNC(=O)c1cc(Oc2ccc(NC(=O)Nc3ccc(Cl)c(C(F)(F)F)c3)c(F)c2)ccn1 [regorafenib] |  |  |  |  |  |  |  |  |  |  |  |  |  |  |  |  |  |  |  |  | inhibition at 30 min, 100 µM [2]: 83.7%
COc1cccc(C2(O)CCCCC2CN(C)C)c1 (centres unmarked) [Tramadol, tramadol] | 770 ± 169 | 1120 | 777 ± 233 | 1650 | 786 ± 165 | 1220 | 790 ± 226 | 1650 | 440 | 298 | 459 | 214 | 202 ± 82.7 | 245 ± 38.3 | 246 ± 57.6 | 294 ± 85.2 | 0.5 | 0.6 ± 0.22 | 1.6 ± 0.55 | 0.9 ± 0.65 | Vd/F [1, 3]: 168 ± 88.2 L/kg; Vd/F [1, 4]: 154 ± 96.5 L/kg; Vd/F [1, 5]: 307 ± 309 L/kg; Vd/F [1, 6]: 51.4 ± 19.1 L/kg; half-life [1, 3]: 4.22 ± 1.68 h; half-life [1, 4]: 6.91 ± 5.73 h; half-life [1, 5]: 6.69 ± 5.14 h; half-life [1, 6]: 2.74 ± 0.56 h

Reference: publication PMC11144398, “Crizotinib inhibits the metabolism of tramadol by non-competitive suppressing the activities of CYP2D1 and CYP3A2” (PeerJ, 2024)
